# Tested on: Plasmodium falciparum
# Test: GSK_TCMDC: Inhibition of Plasmodium falciparum 3D7 in whole erythrocytes, using parasite LDH activity as an index of growth.
# Format: functional, organism-based
# Settings: Plasmodium falciparum, 3D7
row,SMILES,XC50
1,O=C(/C=C/c1ccc(Cl)c(Cl)c1)NCCCCCN1CCCN(C(=O)Nc2ccc(Cl)c(C(F)(F)F)c2)CC1,730 nM
2,NCCCNc1ccnc2cc(Cl)ccc12,305 nM
3,COc1ccc(NC(=O)C2c3ccccc3C(=O)N(CC(C)C)C2c2cccs2)cc1OC (stereo unspecified),203 nM
4,O=C(/C=C/c1ccc(Cl)c(Cl)c1)N1CCC(CN2CCC(c3c[nH]c4ccncc34)CC2)CC1,733 nM
5,Cc1ccc(NC(=O)c2ccc3ncccc3c2)cc1OC1CCN(CCC(C)C)C1 (stereo unspecified),351 nM
6,COc1cc(CCNC(=O)Cc2ccc3ccccc3c2)ccc1OCc1ccccc1,1020 nM
7,CN(CCN(C)C(=O)NCc1ccccc1)C(=O)NCc1ccccc1,930 nM
8,Cc1ccc(-c2cc(C(=O)Nc3ccc(S(=O)(=O)N4CCCCC4)cc3)[nH]n2)c(O)c1,1770 nM
9,Fc1cc(Cl)ccc1Nc1ccnc2cc(-c3scnc3CNCCN3CCOCC3)ccc12,848 nM
10,COc1ccc(CC(=O)NC(CCCN2CCC(c3ccccc3)CC2)c2ccc(Cl)c(Cl)c2)cc1OC (stereo unspecified),1050 nM
11,O=S(=O)(Nc1ccc(CCN2CCC(N3CCCCC3)CC2)cc1)c1ccccc1C(F)(F)F,1020 nM
12,COc1ccc(C2SCC(=O)N2CCc2ccc(OC)c(OC)c2)cc1 (stereo unspecified),306 nM
13,CCOC(=O)NC1=NC(C)(C)N(OCCCOc2ccc(C)cc2C)C(NC(=O)OCC)=N1,126 nM
14,Cc1cccc2[nH]c(-c3cc(-c4cn[nH]c4)cnc3N)nc12,221 nM
15,Cc1ccn2cc(-c3ccc(NC(=O)c4ccc(Br)o4)cc3)nc2c1,741 nM
16,CCCCCN(C(=O)Nc1cc(C(F)(F)F)cc(C(F)(F)F)c1)C(C)c1nc2ccccc2c(=O)n1CC (stereo unspecified),787 nM
17,Oc1cc2c(cc1CN1CCN(Cc3ccccc3F)CC1)CCC2,761 nM
18,O=C(NC1CCC(CN2CCC(c3c[nH]c4ccccc34)CC2)CC1)c1csc(-c2cccc(Cl)c2Cl)n1 (stereo unspecified),1730 nM
19,CC1CCN(c2nc(C(=O)Nc3cccc4c3CCCC4)c(C(C)C)s2)CC1,1040 nM
20,COc1cc(Nc2ccnc3ccc(C(C)(C)C)cc23)cc(OC)c1OC,610 nM
21,Cc1[nH]c(C)c(-c2ccc(-c3cc(C(F)(F)F)cc(C(F)(F)F)c3)nc2)c(=O)c1Br,81.4 nM
22,CCOc1cc(C=NNc2nc(C)cc(-n3nc(C)cc3C)n2)ccc1O,1080 nM
23,CN(C)CCNC(=O)c1ccc2c(c1)ncn2-c1cc(OCc2ccccc2C(F)(F)F)c(C(N)=O)s1.CN(C)CCNC(=O)c1ccc2ncn(-c3cc(OCc4ccccc4C(F)(F)F)c(C(N)=O)s3)c2c1,809 nM
24,COc1ccc(C=NN=c2cc(C)[nH]c3ccccc23)c2ccccc12,752 nM
25,Cc1cccc2nc(-c3ccc(-c4ccc(C(=O)NCCN5CCCC5)cc4)cc3)[nH]c12,519 nM
26,Cn1nc(-c2cccc(CNC3CCc4ccccc43)c2)c2cnc(NCCCN3CCCC3)nc21 (stereo unspecified),877 nM

row,SMILES,XC50
1,COc1ccccc1Nc1nc(C)cc(NCc2ccc(-c3c(C)noc3C)cc2)n1,872 nM
2,C[C@@H](NC(=O)NC(CCN1CCC2(CC1)CN(S(C)(=O)=O)c1ccccc12)c1ccc(Cl)c(Cl)c1)c1ccccc1 (stereo partly specified),903 nM
3,Nc1c(Cl)cc(C(O)CNCCCCCCCCCc2ccccn2)cc1Cl (stereo unspecified),863 nM
4,COc1ccc(C(=O)CC(=O)c2ccc(OC)cc2OC)c(OC)c1,300 nM
5,Cc1ccc(Nc2ccnc3cc(-c4nccs4)ccc23)cc1C(O)c1ccccc1 (stereo unspecified),735 nM
6,O=C(Nc1ccc2ccccc2n1)c1ccccc1-c1ccccc1,438 nM
7,COc1ccc2nccc(NC(=O)N3CCC(NCCOc4cc(F)cc(F)c4)CC3)c2n1,770 nM
8,O=C(Cn1cc(C=C2SC(=NC3CCCC3)N(C3CCCC3)C2=O)c2ccccc21)N1CCCC1,297 nM
9,CCC(C)NS(=O)(=O)c1ccc2nc(Nc3ccc(C)c(Cl)c3)n(C(C)C(C)C)c2c1 (stereo unspecified),375 nM
10,CC(C)C1=NC(=O)c2cc([N+](=O)[O-])ccc2CN1,149 nM
11,COc1cccc(Nc2nc(C)cc(NCc3ccc(-n4ccnc4)cc3)n2)c1,958 nM
12,COc1ccc(-c2cccc(NC(=O)c3cccc(Cl)c3)c2)cc1CN1CCC(O)CC1,791 nM
13,COc1ccc(OC)c2c1CCN(C)C2Cc1cccc2ccccc12 (stereo unspecified),1050 nM
14,CN1CCC(NCc2ccc(-c3ccc(S(=O)(=O)NCc4ccccc4)s3)cc2)CC1,765 nM
15,COc1ccc(CNC2Cc3ccccc3C2)cc1-c1ccc(S(=O)(=O)NCCN2CCCC2)c(F)c1,719 nM
16,CCCC(C)Nc1nc(C)cc(NCCC(=O)Nc2ccc(OC)cc2)n1 (stereo unspecified),1380 nM
17,CN(C)C(CNC(=O)c1cc(-c2ccncc2)c(-c2ccc(NC(=O)Nc3ccccc3)cc2)o1)c1ccccc1 (stereo unspecified),603 nM
18,COc1cccc(Cc2c(C)nc3nc(N)nc(N)c3c2C)c1,879 nM
19,CS(=O)(=O)CCNCc1ccc(-c2ccc3c(Nc4ccc(Cl)cc4F)ccnc3c2)o1,668 nM
20,Cc1cc(NCCC(=O)NCCc2ccccc2)nc(NCCc2ccc(F)cc2)n1,1080 nM
21,C#Cc1cccc(NC(=O)[C@H](CC2CCCCC2)Nc2ccc(C#N)c3ccccc23)c1,588 nM
22,O=C(/C=C/c1ccc(Cl)c(Cl)c1)N1CCC(CCCN2CCC(c3c[nH]c4ccc(O)cc34)CC2)CC1,694 nM
23,CCOC(=O)c1nc(-c2cccnc2)[nH]c1NC(=S)NCc1ccccc1,711 nM
24,CC1CCCCN1CCCNc1ncc2c(-c3ccc(NC(=O)Nc4cc(C(F)(F)F)ccc4F)c(F)c3)nn(C)c2n1 (stereo unspecified),263 nM
25,COCCNC(=O)C(CNC(=O)c1ccc2c(c1)OCO2)NC(=O)c1ccc(-c2ccccc2)cc1 (stereo unspecified),974 nM
26,COc1cccc(NC(=O)c2cc(C(=O)Nc3cccc(OC)c3)cc([N+](=O)[O-])c2)c1,661 nM

row,SMILES,XC50
1,CCOC(=O)c1cc(C(=O)NCCCCN2CCC(c3ccc4c(c3OC)CCCC4)CC2)ccc1-c1ccc(C(F)(F)F)cc1,707 nM
2,COc1cccc2c(NN=Cc3ccccc3F)ccnc12,941 nM
3,CCOC(=O)c1ccc(Nc2cc(Nc3ccc(C(=O)OCC)cc3)nc(C)n2)cc1,907 nM
4,CN(C)C(=S)N/N=C1/C(=O)Nc2ccccc21,1050 nM
5,CC(C)(C)[C@@H](Nc1ccc(C#N)c2ccccc12)C(=O)NC1(Cc2ccc(O)cc2)CCCC1,1440 nM
6,COc1ccccc1N1CCN(Cc2c(O)ccc3cc(Br)ccc23)CC1,1150 nM
7,CCCCN(CCCC)CCOc1cc2c(cc1OC)CCN2C(=O)/C=C/c1ccccc1Cl,1180 nM
8,CC(C)Cn1c(Sc2ccc(C#N)c([N+](=O)[O-])c2)nnc1-c1ccccc1Cl,901 nM
9,CCSc1nc2sc3c(c2c(=O)n1-c1ccccc1)CCN(C)C3,457 nM
10,CC(C)c1ccc(NC(=O)c2ccc(C(=O)NC3CCN(Cc4ccccc4)CC3)cc2)cc1,982 nM
11,Cc1cc(N(CCN2CCCCC2)CCN2CCCCC2)nc(Nc2ccc(Cl)cc2)n1,269 nM
12,CN(C)CC1CCCN1Cc1ccccc1-c1cnn(C)c(=O)c1Oc1ccc(F)cc1 (stereo unspecified),1220 nM
13,O=C(Cn1c(=O)cnc2ccccc21)Nc1cccc(C(=O)Nc2cccc(C(F)(F)F)c2)c1,277 nM
14,N=C(N)NC(=O)Nc1ccc([N+](=O)[O-])c(Cl)c1,880 nM
15,CCOc1ccc(C(=O)Nc2cc(Br)c3c(c2)CNCC3)cc1Br,990 nM
16,CC(C)(C)c1ccc(CNC(=O)c2cc(CNC3CCNC3)ccc2O)cc1 (stereo unspecified),805 nM
17,COCCNCc1ncsc1-c1ccc2c(Nc3cc(O)ccc3C)ccnc2c1,705 nM
18,Cc1cccc2nc(-c3ccc(-c4ccc(CN5CCOCC5)cc4)cc3)[nH]c12,818 nM
19,Cc1cc(Nc2ccc(C)c(C)c2)n2nc(C)nc2n1,599 nM
20,CNCCCCCCOc1ccc(CC(C)NCC(O)c2cccc(C(F)(F)F)c2)cc1 (stereo unspecified),884 nM
21,CCCNCc1ccc(-c2ccc(CN(CCOC)C(=O)c3cccc(C#N)c3)cc2)nc1,1230 nM
22,COc1cccc2cc(C(=O)N[C@@H](CC(C)C)C(=O)Nc3cc(F)ccc3Br)oc12,965 nM
23,CC1(C)N=C(N)N=C(N)N1c1cccc(I)c1,126 nM
24,CCC(C(=O)Nc1cc(=O)[nH]c2nc(-c3ccco3)nn12)c1ccccc1 (stereo unspecified),844 nM
25,CS(=O)(=O)c1ccc2[nH]c(-c3cc(-c4ccc(OCCN5CCOCC5)cc4)cnc3N)nc2c1,1060 nM
26,Cc1cc(NCCC(=O)Nc2ccccc2)nc(NCCOc2ccccc2)n1,1140 nM

row,SMILES,XC50
1,O=C(Nc1cccc(C(F)(F)F)c1)Nc1nc2ccc([N+](=O)[O-])cc2s1,687 nM
2,Cc1cccc(-c2cccc3c(NC(=O)N4CCc5cc6nccc(N7CCN8CCC[C@H]8C7)c6cc54)cccc23)n1,916 nM
3,O=C(Nc1cccc(CN2CCCN(CCc3ccccc3)CC2)c1)c1cc2ccccc2s1,1130 nM
4,Cn1nccc1C(=O)NCCNCc1ccc(-c2ccc(-c3nc4cc(F)ccc4[nH]3)cc2)cc1,297 nM
5,CCCCOc1ccc(CNCCCCCCNCc2ccc(OCCCC)c3ccccc23)c2ccccc12,1130 nM
6,COc1ccc(OC)c(CNCC(O)c2cc(C(F)(F)F)cc(C(F)(F)F)c2)c1 (stereo unspecified),443 nM
7,C=CCc1cc(Cc2cnc(N)nc2N)cc(CCC)c1OC,1360 nM
8,Cc1cc(N(C)C)nc(Nc2ccc(NC(=O)c3ccc(Br)o3)cc2)n1,1050 nM
9,c1ccc(-c2ccc(CNCCCNc3nc4ccccc4[nH]3)cc2)cc1,783 nM
10,CN(C)Cc1cccc(-c2ccc3ccnc(N)c3c2)c1,122 nM
11,CCN1CC=C(c2c[nH]c3ccccc23)CC1,1030 nM
12,O=C(NCCCCCN1CCC(c2c[nH]c3ccccc23)CC1)c1ccc(-c2cccnc2)cc1,1030 nM
13,COc1ccc2ncc(F)c(CCN3CC(O)C(CNCc4ccc5ccccc5c4)C3)c2n1 (stereo unspecified),501 nM
14,Cc1ccc(O)cc1Nc1ccnc2cc(-c3ccc(CN4CCCCC4)o3)ccc12,166 nM
15,CCOc1cccc(C(=O)Nc2nonc2-c2ccc(OC)c(OC)c2)c1,1020 nM
16,Cc1cccc2nc(-c3ccc(-c4ccc(CNCCc5ccncc5)cc4)cc3)[nH]c12,208 nM
17,Cn1cnc(CCNC(=O)c2cccc(-c3ccc(-c4nc5cc(F)ccc5[nH]4)cc3)c2)c1,941 nM
18,CC(C)(C)c1ccccc1OCCCON1C(=N)N=C(N)NC1(C)C,3.2 nM
19,N=C1NC(=N)N(OCCCCCCON2C(=N)NC(=N)NC2C=Cc2ccccc2)C(C=Cc2ccccc2)N1 (stereo unspecified),615 nM
20,CN(C)c1cccc(-c2cnc3ccc(NCc4cccc(Cl)c4)nn23)c1,700 nM
21,O=C(Nc1cccc([N+](=O)[O-])c1)N(Cc1ccc(Cl)c(Cl)c1)C1CCNCC1,719 nM
22,COc1ccc(CCNCc2cc3c(C(C)(C)C)nn(-c4ccc(Cl)cc4)c3[nH]c2=O)cc1OC,148 nM
23,CCN(CCNC(=O)C1CCN(c2cc(-c3cccc(C)c3)ncn2)CC1)Cc1ccccc1,171 nM

# — ChEMBL document CHEMBL1157539, “Thousands of chemical starting points for antimalarial lead identification” (Nature, 2010)
